Assay results taken from patent EP0452507A1, “MEDICINE COMPRISING TOCOPHERYL GLYCOSIDE AS ACTIVE INGREDIENT” (NIPPON HYPOX LABORATORIES INCORPORATED, priority 1989, dated 1991).

Test system: carrageenin-induced inflammation
Assay: carrageenin-induced inflammation, right hind paw swelling by volumetry
Type: in vivo, rats
Conditions: Example 7, Fig. 6; for inhibition activity against carrageenin-induced inflammation: VIE-MAN 10, 30, 100 mg/kg, depending upon its dose, comparators 10 mg/kg, intraperitoneally
Experimental: Six groups each consisting of five male SD rats weighing 180 to 220 g were used (total 30 rats), and each rat was measured for a size of the subplantar region1 of the right hind paw.
In order to induce carrageenin-induced inflammation, 0.1 ml/rat of a physiological saline solution of 1 % X-carrageenin was prepared.
One out of the six groups was used as Control group. A physiological saline solution of 10 % Nikkol was administered intraperitoneally to each rat of this group, and 0.5 hours after the administration of the physiological saline solution of 10 % Nikkol, 0.1 ml of the physiological saline solution of 1 % X-carrageenin was administered intracutaneously into the subplantar region of the right hind paw of each rat. Then, 0.5, 1, 2, 3 and 4 hours after the administration of […] of the physiological saline solution of 1 % X-carrageenin, the swelling on the subplantar region of the right hind paw of each rat was measured by volumetry, arid the average of swelling ratios of the group in every measurement was determined on the basis of the measurement values of the sizes of subplantar regions of the right hind paws of the rats obtained before the administration of the physiological saline solution of 10 % Nikkol solution.
The procedure for Control group was repeated except that a physiological saline solution of 10 % Nikkol containing VIE-MAN in place of the physiological saline solution of 10 % Nikkol was administered intraperitoneally in such a dose that the amount of VIE-MAN was 10 mg/kg.
The procedure for Control group was repeated except that a physiological saline solution of 10 % Nikkol containing VIE-MAN in place of the physiological saline solution of 10 % Nikkol was administered intraperitoneally in such a dose that the amount of VIE-MAN was 30 mg/kg.
The procedure for Control group was repeated except that a physiological saline solution of 10 % Nikkol containing VIE-MAN in place of the physiological saline solution of 10 % Nikkol was administered intraperitoneally in such a dose that the amount of VIE-MAN was 100 mg/kg.
(§1) The procedure for Example groups ⑭, ⑮ and ⑯ was repeated except that a physiological saline solution of 10 % Nikkol containing cortisone acetate which was a steroidal anti-inflammatory preparation (immunosuppressive preparation) in place of the physiological saline solution of 10 % Nikkol containing VIE-MAN was administered intraperitoneally in such a dose that the amount of the cortisone acetate was 10 mg/kg.
as §1, with “indomethacin” for “cortisone acetate”, “nonsteroidal” for “steroidal”, “(antipyretic analgesic antiphlogistic” for “(immunosuppressive”

Structure (SMILES) | average of swelling ratios (10, 30 and 100 mg/kg intraperitoneally, 0.5 hour after administration of 1 % carrageenin solution, versus Control group) | inhibition activity against carrageenin-induced inflammation | inhibition activity against carrageenin-induced inflammation compared with VIE-MAN (comparators 10 mg/kg intraperitoneally)
Cc1c(C)c2c(c(C)c1OC1OC(CO)C(O)C(O)C1O)CCC(C)(CCCC(C)CCCC(C)CCCC(C)C)O2 (racemic) [VIE-MAN, dl-a-tocopheryl-a-D-mannoside] | significantly lower than that of swelling ratios of Control group | excellent inhibition activity | –
COc1ccc2c(c1)c(CC(=O)O)c(C)n2C(=O)c1ccc(Cl)cc1 [indomethacin, reference compound] | – | significant activity at and after 0.5 hour | lower than that of VIE-MAN
